Experimental data reported in article PMC9090415, “Discovery of small molecule inhibitors of Plasmodium falciparum apicoplast DNA polymerase” (Journal of Enzyme Inhibition and Medicinal Chemistry, 2022).

Target: P. falciparum apicoplast DNA polymerase (Pf-apPOL) (Plasmodium falciparum, UniProt Q8ILY1)
Assay: Fluorescence-based high-throughput DNA polymerase assay (molecular beacon), primary screen and dose-response;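 on % inhibition ApPOL 90': test concentration in µM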;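 on % inhibition apPOL 180': test concentration in µM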
Format: biochemical
Settings: for DNA Pol: 90 min, 10 µM; for IC50: supplemental file 2, sheet IC50 nontoxic compounds, Pf-apPOL
Procedure, shortened: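 Single-point screening used 10 µM compound with 20 nM polymerase, 20 nM hairpin substrate and 6 µM dNTPs for 90 min at 25 °C. Confirmatory titrations (2.5–80 µM) followed fluorescence at three times, and IC50 was derived from a fit including a cooperativity term n.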

P. falciparum apicoplast DNA polymerase (Pf-apPOL), sequence (Q8ILY1 entry or part of it): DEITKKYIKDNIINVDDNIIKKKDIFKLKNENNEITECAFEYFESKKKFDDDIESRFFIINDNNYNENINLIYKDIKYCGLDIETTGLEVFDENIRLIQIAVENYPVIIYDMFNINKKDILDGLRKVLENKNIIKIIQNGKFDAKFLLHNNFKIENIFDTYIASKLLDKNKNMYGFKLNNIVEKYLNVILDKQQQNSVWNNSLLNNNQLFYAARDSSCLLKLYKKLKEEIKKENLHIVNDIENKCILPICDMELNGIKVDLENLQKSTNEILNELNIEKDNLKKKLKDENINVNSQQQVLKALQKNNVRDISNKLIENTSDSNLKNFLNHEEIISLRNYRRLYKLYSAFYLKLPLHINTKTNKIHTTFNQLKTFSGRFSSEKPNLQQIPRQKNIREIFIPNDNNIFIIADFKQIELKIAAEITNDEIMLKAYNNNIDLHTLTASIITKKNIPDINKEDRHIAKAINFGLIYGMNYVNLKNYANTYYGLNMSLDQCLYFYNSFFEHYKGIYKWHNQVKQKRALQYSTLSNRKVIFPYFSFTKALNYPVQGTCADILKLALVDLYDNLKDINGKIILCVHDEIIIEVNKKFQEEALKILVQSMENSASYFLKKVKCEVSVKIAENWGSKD

Cc1ccc(CNC(=O)c2cnn3c(O)cc(CSc4ccc(Cl)cc4)nc23)cc1 [Molecule 99, Cc1ccc(cc1)CNC(=O)c1cnn2c1nc(CSc1ccc(cc1)Cl)cc2O]
DNA Pol ('DNA Pol' of the 186 hits list (screen value)): 67
% inhibition Apo pol 10' (DRC-1, conc 2.5): 17.7402%
% inhibition Apo pol 10' (DRC-1, conc 5): 14.3%
% inhibition Apo pol 10' (DRC-1, conc 10): 59.9515%
% inhibition Apo pol 10' (DRC-1, conc 20): 87.9776%
% inhibition Apo pol 10' (DRC-1, conc 40): 95.4401%
% inhibition Apo pol 10' (DRC-1, conc 80): 98.3006%
% inhibition Apol 90' (DRC-1, conc 2.5): 16.0319%
% inhibition Apol 90' (DRC-1, conc 5): 10.3916%
% inhibition Apol 90' (DRC-1, conc 10): 57.1077%
% inhibition Apol 90' (DRC-1, conc 20): 85.3091%
% inhibition Apol 90' (DRC-1, conc 40): 92.0772%
% inhibition Apol 90' (DRC-1, conc 80): 96.0616%
% inhibition apPOL 180' (DRC-1, conc 2.5): 7.151%
% inhibition apPOL 180' (DRC-1, conc 5): 1.596%
% inhibition apPOL 180' (DRC-1, conc 10): 45.1863%
% inhibition apPOL 180' (DRC-1, conc 20): 80.2247%
% inhibition apPOL 180' (DRC-1, conc 40): 89.0926%
% inhibition apPOL 180' (DRC-1, conc 80): 94.6304%
% inhibition Apo pol 5' (DRC-2, conc 2.5): 29%
% inhibition Apo pol 5' (DRC-2, conc 5): 42%
% inhibition Apo pol 5' (DRC-2, conc 10): 44%
% inhibition Apo pol 5' (DRC-2, conc 20): 58%
% inhibition Apo pol 5' (DRC-2, conc 40): 67%
% inhibition Apo pol 5' (DRC-2, conc 80): 68%
% inhibition Apo pol 5' (DRC-2, concentration 80): 68%
% inhibition Apol 40' (DRC-2, conc 2.5): 32%
% inhibition Apol 40' (DRC-2, conc 5): 49%
% inhibition Apol 40' (DRC-2, conc 10): 50%
% inhibition Apol 40' (DRC-2, conc 20): 68%
% inhibition Apol 40' (DRC-2, conc 40): 78%
% inhibition Apol 40' (DRC-2, conc 80): 81%
% inhibition Apol 40' (DRC-2, concentration 5): 49%
% inhibition Apol 40' (DRC-2, concentration 20): 68%
% inhibition ApPOL 90' (DRC-2, conc 2.5): 31%
% inhibition ApPOL 90' (DRC-2, conc 5): 49%
% inhibition ApPOL 90' (DRC-2, conc 10): 49%
% inhibition ApPOL 90' (DRC-2, conc 20): 69%
% inhibition ApPOL 90' (DRC-2, conc 40): 80%
% inhibition ApPOL 90' (DRC-2, conc 80): 84%
% inhibition ApPOL 90' (DRC-2, concentration 5): 49%
% inhibition ApPOL 90' (DRC-2, concentration 10): 49%
% inhibition ApPOL 90' (DRC-2, concentration 40): 80%
% inhibition apPOL 180' (DRC-2, conc 2.5): 25%
% inhibition apPOL 180' (DRC-2, conc 5): 40%
% inhibition apPOL 180' (DRC-2, conc 10): 41%
% inhibition apPOL 180' (DRC-2, conc 20): 66%
% inhibition apPOL 180' (DRC-2, conc 40): 80%
% inhibition apPOL 180' (DRC-2, conc 80): 86%
% inhibition apPOL 180' (DRC-2, concentration 40): 80%
DNA Pol (primary screen value, "DNA Pol"): 67

Cc1ccc(CNC(=O)c2cnn3c(O)cc(CSc4ccc(Cl)cc4)nc23)cc1 [Molecule 99]
IC50: 9.14 µM

O=C(O)c1cccc(N2N=C(C(F)(F)F)/C(=C/c3ccc(-c4ccccc4[N+](=O)[O-])o3)C2=O)c1 [Molecule 100, O=C1N(N=C(/C/1=C/c1ccc(o1)c1ccccc1N(=O)=O)C(F)(F)F)c1cccc(c1)C(=O)O]
% inhibition Apo pol 10' (DRC-1, concentration 2.5): 26.1484%
% inhibition Apo pol 10' (DRC-1, concentration 5): 12.0969%
% inhibition Apo pol 10' (DRC-1, concentration 10): 67.0777%
% inhibition Apo pol 10' (DRC-1, concentration 20): 85.2952%
% inhibition Apo pol 10' (DRC-1, concentration 40): 91.4411%
% inhibition Apo pol 10' (DRC-1, concentration 80): 91.0692%
% inhibition Apol 90' (DRC-1, concentration 2.5): 19.5679%
% inhibition Apol 90' (DRC-1, concentration 5): 4.613%
% inhibition Apol 90' (DRC-1, concentration 10): 58.3032%
% inhibition Apol 90' (DRC-1, concentration 20): 83.4364%
% inhibition Apol 90' (DRC-1, concentration 40): 89.1977%
% inhibition Apol 90' (DRC-1, concentration 80): 89.0036%
% inhibition apPOL 180' (DRC-1, concentration 2.5): 13.4923%
% inhibition apPOL 180' (DRC-1, concentration 5): 1.454%
% inhibition apPOL 180' (DRC-1, concentration 10): 45.1585%
% inhibition apPOL 180' (DRC-1, concentration 20): 77.5112%
% inhibition apPOL 180' (DRC-1, concentration 40): 84.5547%
% inhibition apPOL 180' (DRC-1, concentration 80): 85.8771%
% inhibition Apo pol 5' (DRC-2, concentration 2.5): 20%
% inhibition Apo pol 5' (DRC-2, concentration 5): 27%
% inhibition Apo pol 5' (DRC-2, concentration 10): 47%
% inhibition Apo pol 5' (DRC-2, concentration 20): 55%
% inhibition Apo pol 5' (DRC-2, concentration 40): 63%
% inhibition Apo pol 5' (DRC-2, concentration 80): 64%
% inhibition Apol 40' (DRC-2, concentration 2.5): 23%
% inhibition Apol 40' (DRC-2, concentration 5): 30%
% inhibition Apol 40' (DRC-2, concentration 10): 51%
% inhibition Apol 40' (DRC-2, concentration 20): 65%
% inhibition Apol 40' (DRC-2, concentration 40): 76%
% inhibition Apol 40' (DRC-2, concentration 80): 78%
% inhibition ApPOL 90' (DRC-2, concentration 2.5): 21%
% inhibition ApPOL 90' (DRC-2, concentration 5): 29%
% inhibition ApPOL 90' (DRC-2, concentration 10): 51%
% inhibition ApPOL 90' (DRC-2, concentration 20): 65%
% inhibition ApPOL 90' (DRC-2, concentration 40): 77%
% inhibition ApPOL 90' (DRC-2, concentration 80): 81%
% inhibition apPOL 180' (DRC-2, concentration 2.5): 14%
% inhibition apPOL 180' (DRC-2, concentration 5): 20%
% inhibition apPOL 180' (DRC-2, concentration 10): 43%
% inhibition apPOL 180' (DRC-2, concentration 20): 60%
% inhibition apPOL 180' (DRC-2, concentration 40): 77%
% inhibition apPOL 180' (DRC-2, concentration 80): 84%
% inhibition Apo pol 5' (conc. 2.5, DRC-2): 20%
% inhibition apPOL 180' (conc. 5, DRC-2): 20%
% inhibition Apol 40' (conc. 10, DRC-2): 51%
% inhibition ApPOL 90' (conc. 10, DRC-2): 51%
% inhibition Apol 40' (conc. 20, DRC-2): 65%
% inhibition ApPOL 90' (conc. 20, DRC-2): 65%
% inhibition ApPOL 90' (conc. 40, DRC-2): 77%
% inhibition apPOL 180' (conc. 40, DRC-2): 77%
DNA Pol (primary screen value by plate and well): 55
DNA Pol (primary screen value of the 186 hits, unit not given): 55

O=C(O)c1cccc(N2N=C(C(F)(F)F)/C(=C/c3ccc(-c4ccccc4[N+](=O)[O-])o3)C2=O)c1 [Molecule 100]
IC50: 9.62 µM
